The values below are quoted from earlier work in patent publication US20100143470A1, “CONTROLLED RELEASE PHARMACEUTICAL COMPOSITION CONTAINING THIAZIDES AND ANGIOTENSIN-II-RECEPTOR BLOCKERS” (HANALL PHARMACEUTICAL COMPANY, LTD, priority 2006, published 2010).

For series [1] the following is noted: orally administered for hypertension therapy.

For the compound `NS(=O)(=O)c1cc2c(cc1Cl)NCNS2(=O)=O` [Hydrochlorothiazide, 6-chloro-3,4-dihydro-2H-1,2,4-benzothiadiazine-7-sulfonamide-1,1-dioxide], under “in vivo”, the blood half-time is 5.6 to 14.8 h. In series [1], the “diuretic effect is sustained” value is 6 to 12 h.
As for `CCCCc1nc(Cl)c(CO)n1Cc1ccc(-c2ccccc2-c2nn[nH]n2)cc1` [losartan], the “time to reach the highest blood concentration” value (after absorption from the small intestine) was at most 1 h. Further, the blood elimination rate (in vivo) was 600 mL/min.
